# Measurements from patent US20100028259A1, “USE OF ORGANIC CATION TRANSPORTERS FOR CANCER DIAGNOSIS AND THERAPY” (The Regents of the University of California, priority 2006, published 2010).
# Like-named read-outs stand apart in the source and are kept apart here.
# Key:
# Format in all cases: cell-based, human
# HEK-hOCT2 cells = experiment: MTT drug sensitivity assay in HEK-hOCT2 cells
# Protocol: (§1) Cytotoxicity of the platinum-based compounds was measured by MTT (thiazolyl blue tetrazolium bromide) assay. Cells were seeded in 100 μl of the culture medium without any antibiotics in 96-well plates at a predetermined cell density. For HEK 293 cells, poly-D-lysine coated plates were used. […] For the OCT inhibitor studies, the inhibitors (i.e., disopyramide or cimetidine) were added to the medium at a specified concentration immediately before the addition of the platinum-based compounds. After incubation for a specified time period, the drug-containing medium was replaced with fresh, drug-free medium and the incubation was continued for a total of 72 hours (start from the addition of platinum-based compounds). Then, the MTT assay was performed similarly as described in Alley et al., Cancer Res., 48:589-601 (1988). […] The maximal cell growth was the cell growth in the medium without any platinum-based compounds; C is the concentration of the platinum-based compound, and γ is the slope factor.
# Briefly, the cells were seeded in 96-well plates at a density of 5,000 cells/well for the transfected MDCK cells or 12,000 cells/well for the transfected HEK 293 cells. The platinum-based drugs were added on the following day. After the specified time periods of drug exposure, the drug-containing medium was replaced with fresh, drug-free medium, and the incubation was continued for a total of 72 hours (start from the time when the drug was added). After incubation, the cell growth was determined by an MTT assay. Data are expressed as mean±SD from 3 to 6 independent experiments with each performed in quadruplicate. The resistance factor (RF) was defined as the ratio of the mean IC50 value in the MOCK cells to that in the OCT-transfected cells.
# HT29 = experiment: MTT drug sensitivity, colon cancer cell line HT29
# Protocol: as §1
# (§2) The cell seeding density was 6,000-, 8,000-, 6,000-, 15,000-12,000- and 4,000 cells/well for HCT116, HT29, RKO, SW620, LS180, and DLD cells, respectively. When cimetidine (1.5 mM) was used, it was added to the wells immediately before the addition of the platinum-based drugs. The resistance factor (RF) was defined as the ratio of the mean IC50 value in the presence to that in the absence of cimetidine. Data are expressed as mean±SD from six measurements, and each measurement was performed in quadruplicate.
# RKO = experiment: MTT drug sensitivity, colon cancer cell line RKO
# Protocol: as §1, §2
smiles,measurement,setting,value
O=C1[O][Pt]2([NH][C@@H]3CCCC[C@H]3[NH]2)[O]C1=O [oxaliplatin],IC50,"HEK-hOCT2 cells; co-incubation with cimetidine 1.5 mM, read-out: IC50 in HEK-hOCT2, cimetidine-treated",2810 ± 1630 nM
same,IC50,"HEK-hOCT2 cells; drug exposure 7 hour, read-out: IC50 HEK-hOCT2",39 ± 25 nM
same,IC50,"HEK-hOCT2 cells; drug exposure 24 hour, read-out: IC50 HEK-hOCT2",20 ± 1 nM
same,IC50,"HEK-hOCT2 cells; drug exposure 72 hour, read-out: IC50 HEK-hOCT2",19 ± 4 nM
same,IC50,"HT29; HT29, absence of cimetidine, read-out: IC50 Control",4560 ± 1400 nM
same,IC50,"HT29; HT29, cimetidine 1.5 mM, read-out: IC50 Cimetidine-treated",52100 ± 18500 nM
same,IC50,"RKO; absence of cimetidine, read-out: IC50 Control",1640 ± 560 nM
same,IC50,"RKO; cimetidine 1.5 mM, read-out: IC50 Cimetidine-treated",9700 ± 2700 nM
